Experimental data taken from patent US7528226B2, “TGFβ1-inhibitor peptides” (Rojecto de Biomedicina Cima S.L., priority 1998, dated 2009).
No end group written: not given here.

Biological target: T1, TGFβ1 (Homo sapiens, UniProt P01137)
T1 construct: the mature TGFβ1 is released by another cut; purchased R&D Systems Europe Ltd., Abingdon, UK
Type: cell-based
Settings: TGFβ1 200 pg/ml
Description: A line derived from mink pulmonary epithelium, MV-1-Lu, was used (CCL-64, American Type Cell Culture, Virginia, USA). The cells were grown in 162 cm^2 culture flasks (Costar Corporation, Cambridge, USA) in a stove at 37° C. and 5% CO2, until subconfluence was attained. A complete medium was used: RPMI 1640 with L-glutamine (GibcoBRL, Life Technologies Ltd., Paisley, Scotland) supplemented with 5% of foetal calf serum (FCS, Biological Industries, Kibbutz Beit Haemek, Israel), 10 mM HEPES (1M HEPES Buffer, Bio-Whittaker, Verviers, Belgium) and antibiotics (100 U/ml penicillin and 100 μ/ml streptomycin).
The MV-1-Lu cells grown as indicated above were removed from the bottom of the culture flasks using 5 ml of trypsin-EDTA (Biological Industries, Kibbutz Beit Haemek, Israel), resuspended in complete medium and centrifuged at 1500 rev/min for 8 minutes. After centrifugation the cells were resuspended in complete medium to a concentration of 50,000 cells/ml. For conducting the test, 10 ml of the cell suspension were taken and dispensed in 96-well, flat-bottom culture plates (Costar Corporation, Cambridge, USA), adding 100 μl/well, and were incubated overnight at 37° C. and 5% CO2, which permits adhesion of the cells to the bottom of the wells. […] The final concentration of FCS in the well was 2.5%. After 24 hours of incubation, 1 μCi of tritiated thymidine was added per well (25 Ci/mmol [methyl-^3H]-thymidine, Amersham Life Science, Buckinghamshire, UK) with incubation for a further 12 hours (Grubeck-Loebenstein B. et al. (1989) J. Clin. Invest. 83:764-770; Brennan F M et al. (1990) Clin. Exp. Immunol. 81:278-285).
At the end of the incubation periods the cells were removed from the bottom of the wells with trypsin-EDTA and were collected using a manual harvester (Titertek cell harvester, Skatron Instruments Inc., Sterling, USA) which ruptures the cells, collecting the DNA in nitrocellulose filters (Filter MAT 11731, Skatron Instruments Inc., Sterling, USA) where it is fixed. The filters were placed individually in 5 ml polypropylene tubes to which 4 ml of scintillation fluid was added (Biogreen-11, Reactivos Scharlau S. A., Barcelona, Spain). The activity of each tube was quantified for 90 seconds in a β LKB scintillation counter (Beta plate system, LKB, Uppsala, Sweden).
TGFβ1 is a cytokine that is able to inhibit the growth in vitro of the MV-1-Lu cell line (Grubeck-Loebenstein B. et al. (1989) J. Clin. Invest. 83:764-770; Brennan F M et al. (1990) Clin. Exp. Immunol. 81:278-285), therefore this line was used for testing the blocking effect of peptides on TGFβ1. After different combinations of media, cells and thymidine, we studied the effect of different concentrations of TGFβ1 on incorporation of [methyl-^3H]thymidine by MV-1-Lu cells in culture, for determining the most suitable conditions for the test. […]
The synthetic peptides that are potentially inhibitors of TGFβ1 activity, selected as indicated above in the section: selection of the peptides to be synthesized (both those derived from proteins that bind to TGFβ1 itself) were tested using the MV-1-Lu cell line. The selected peptides are soluble in buffered RPMI medium. The peptides were dissolved in buffered RPMI medium, free from foetal calf serum, and the following was used.
The peptides belonging to the sequence of the receptor, or complementary to the peaks of hydrophilicity of TGFβ1, were incubated for 30 minutes in the presence of this cytokine and were then combined with the cell culture. The peptides derived from the sequence of TGFβ1 were added to the cell culture prior to addition of TGFβ1, since they interact with the receptors of the cell surface. These incubations were effected in 100 μl of the same medium as was used for adding the cells. The active peptides permitted cell growth to a greater or lesser degree depending on its ability to inhibit TGFβ1.

T1 sequence (P01137 279-390): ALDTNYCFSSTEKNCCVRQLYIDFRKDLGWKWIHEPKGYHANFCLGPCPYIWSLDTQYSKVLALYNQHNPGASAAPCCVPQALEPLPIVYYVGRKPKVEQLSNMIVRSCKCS

Sequence: TSLDASIIWAMMQN [P144, ThrSerLeuAspAlaSerIleIleTrpAlaMetMetGlnAsn]
- dependence of the inhibitory activity on the peptide concentration (dose-response test): activity of the peptide decreases with the decrease in the concentration
- inhibitory activity of TGFβ1 (in words) (peptide 200 μg/ml, MV-1-Lu cells): had proved active
